Measurements published in PubChem BioAssay (NCI).
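Values below derive from 48-hour exposures of cells grown in 96-well plates, with endpoints linearly interpolated between the two concentrations bracketing the appropriate inhibition level. At the TGI there is no net growth.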

Tests used:
Test in all cases: NCI tumour cell line growth inhibition, 48 h
K-562 leukemia = system: K-562 leukemia
HCT-116 colon = system: HCT-116 colon
MOLT-4 leukemia = system: MOLT-4 leukemia
HCC-2998 colon = system: HCC-2998 colon
NCI-H460 lung = system: NCI-H460 lung
MDA-MB-231 breast = system: MDA-MB-231 breast
MCF7 breast = system: MCF7 breast
ACHN renal = system: ACHN renal
NCI-H23 lung = system: NCI-H23 lung
HS 578T breast = system: HS 578T breast
EKVX NSCLC = system: EKVX NSCLC
HOP-92 NSCLC = system: HOP-92 NSCLC
SF-268 CNS = system: SF-268 CNS
OVCAR-4 ovarian = system: OVCAR-4 ovarian
A549 NSCLC = system: A549 NSCLC
SK-MEL-5 melanoma = system: SK-MEL-5 melanoma
UACC-62 melanoma = system: UACC-62 melanoma
HT29 colon = system: HT29 colon
SK-OV-3 ovarian = system: SK-OV-3 ovarian
RPMI-8226 leukemia = system: RPMI-8226 leukemia
786-0 renal = system: 786-0 renal
M14 melanoma = system: M14 melanoma
NCI/ADR-RES ovarian = system: NCI/ADR-RES ovarian
OVCAR-5 ovarian = system: OVCAR-5 ovarian
CAKI-1 renal = system: CAKI-1 renal
TK-10 renal = system: TK-10 renal
HOP-62 NSCLC = system: HOP-62 NSCLC
OVCAR-8 ovarian = system: OVCAR-8 ovarian
MDA-MB-435 = system: MDA-MB-435
U251 CNS = system: U251 CNS
SK-MEL-2 melanoma = system: SK-MEL-2 melanoma
SNB-19 CNS = system: SNB-19 CNS
BT-549 breast = system: BT-549 breast
HL-60(TB) leukemia = system: HL-60(TB) leukemia
IGROV1 ovarian = system: IGROV1 ovarian
COLO 205 colon = system: COLO 205 colon
NCI-H522 lung = system: NCI-H522 lung
PC-3 prostate = system: PC-3 prostate
SN12C renal = system: SN12C renal
UO-31 renal = system: UO-31 renal
SF-295 CNS = system: SF-295 CNS
LOX IMVI melanoma = system: LOX IMVI melanoma
SW-620 colon = system: SW-620 colon
SF-539 CNS = system: SF-539 CNS
MALME-3M melanoma = system: MALME-3M melanoma
KM12 colon = system: KM12 colon
UACC-257 melanoma = system: UACC-257 melanoma
HCT-15 colon = system: HCT-15 colon
RXF 393 renal = system: RXF 393 renal
SR leukemia = system: SR leukemia
SK-MEL-28 melanoma = system: SK-MEL-28 melanoma
NCI-H226 lung = system: NCI-H226 lung

In the case of `Oc1cccc(-c2cc(=S)ss2)c1`, the TGI (K-562 leukemia) is reported as 60.6 µM, the TGI (HCT-116 colon) is reported as 33.3 µM and the TGI (MOLT-4 leukemia) is reported as > 100 µM. The TGI (HCC-2998 colon) was 32.4 µM, the TGI (NCI-H460 lung) was 32.8 µM and the TGI (MDA-MB-231 breast) was 31.5 µM. For the same molecule, the TGI (MCF7 breast) was 27.5 µM, the TGI (ACHN renal) was 30.1 µM and the TGI (NCI-H23 lung) was 23.1 µM. It also gave a TGI (HS 578T breast) of 36.9 µM, a TGI (EKVX NSCLC) of 31.5 µM and a TGI (HOP-92 NSCLC) of 28.5 µM. For the same molecule, the TGI (SF-268 CNS) was 32.6 µM, the TGI (OVCAR-4 ovarian) was 40.6 µM and the TGI (A549 NSCLC) was 44.5 µM. The TGI (SK-MEL-5 melanoma) was 19.7 µM, the TGI (UACC-62 melanoma) was 38.2 µM and the TGI (HT29 colon) was 55.3 µM. For the same molecule, the TGI (SK-OV-3 ovarian) was 37.7 µM, the TGI (RPMI-8226 leukemia) was 5.91 µM and the TGI (786-0 renal) was 36.2 µM. For the same molecule, the TGI (M14 melanoma) was 37.7 µM, the TGI (NCI/ADR-RES ovarian) was 53.7 µM and the TGI (OVCAR-5 ovarian) was 30.8 µM. The TGI (CAKI-1 renal) was 45.7 µM, the TGI (TK-10 renal) was 33.1 µM and the TGI (HOP-62 NSCLC) was 34.3 µM. It also gave a TGI (OVCAR-8 ovarian) of 49.9 µM, a TGI (MDA-MB-435) of 53.8 µM and a TGI (U251 CNS) of 28.5 µM. For the same molecule, the TGI (SK-MEL-2 melanoma) was 30.5 µM, the TGI (SNB-19 CNS) was 36.4 µM and the TGI (BT-549 breast) was 35.8 µM. The TGI (HL-60(TB) leukemia) was 48.5 µM, the TGI (IGROV1 ovarian) was 29.8 µM and the TGI (COLO 205 colon) was 35.6 µM. The TGI (NCI-H522 lung) was 20.4 µM, the TGI (PC-3 prostate) was 28.3 µM and the TGI (SN12C renal) was 36.5 µM. It also gave a TGI (UO-31 renal) of 28.5 µM, a TGI (SF-295 CNS) of 29.5 µM and a TGI (LOX IMVI melanoma) of 33.3 µM. It also gave a TGI (SW-620 colon) of 44.3 µM, a TGI (SF-539 CNS) of 35 µM and a TGI (MALME-3M melanoma) of 32.5 µM. It also gave a TGI (KM12 colon) of 43 µM, a TGI (UACC-257 melanoma) of 28.4 µM and a TGI (HCT-15 colon) of 31.4 µM. It also gave a TGI (RXF 393 renal) of 40.5 µM, a TGI (SR leukemia) of 11.9 µM and a TGI (SK-MEL-28 melanoma) of 43.8 µM. The TGI (NCI-H226 lung) was 41 µM.
